What all share (assay): cells
What all share (set-up): Anti-proliferation, 10-point dose response, CellTiter-Glo luminescence (MTT stated for KM12(Luc)), GI50 fitted in Prism
In general terms: Cellular ATP, detected with luciferase, serves as a proxy for viable cell number.

The test system of assay [1] is MKN28. To be noted: Homo sapiens, MKN-28, 72 h, read-out: GI50 (µM) a.
The test system of assay [2] is 8505C. To be noted: Homo sapiens, 8505C, 72 h, read-out: GI50 (µM) a.
Assay [3] has as its system DU-145. Particulars: Homo sapiens, DU-145, 72 h, read-out: GI50 (µM) a.
In assay [4] the test system is A172. Particulars: Homo sapiens, A 172, 72 h, read-out: GI50 (µM) a.
Assay [5] concerns DLD-1. To be noted: Homo sapiens, DLD-1, 72 h, read-out: GI50 (µM) a.
Assay [6] has as its system PANC-1. Particulars: Homo sapiens, PANC-1, 72 h, read-out: GI50 (µM) a.
Assay [7] concerns A549. To be noted: Homo sapiens, A549, 72 h, read-out: GI50 (µM) a.
Assay [8] deals with HEC1A. To be noted: Homo sapiens, HEC-1-A, 72 h, read-out: GI50 (µM) a.
Assay [9] has as its system HCC70. Particulars: Homo sapiens, HCC70, 72 h, read-out: GI50 (µM) a.
Assay [10] concerns SW480. Particulars: Homo sapiens, SW480, 72 h, read-out: GI50 (µM) a.
Assay [11] has as its system CAPAN-1. To be noted: Homo sapiens, CAPAN-1, 72 h, read-out: GI50 (µM) a.
Assay [12] relates to OCI-AML3. Particulars: Homo sapiens, OCI-AML-3, 72 h, read-out: GI50 (µM) a.

In publication PMC8591201, “Anti-Tumor Activity of AZD4547 Against NTRK1 Fusion Positive Cancer Cells Through Inhibition of NTRKs” (Frontiers in Oncology, 2021) one finds GI50 data, which are given here for 1 compound.

Structures are written as SMILES.

In the case of `COc1cc(CCc2cc(NC(=O)c3ccc(N4C[C@@H](C)N[C@@H](C)C4)cc3)n[nH]2)cc(OC)c1` [AZD4547], the GI50 (commonly the concentration giving 50% growth inhibition) in assay [1] turned out to be 10.9 µM; in assay [2] it was 14.7 µM; in assay [3] it was 10.7 µM; in assay [4] it was 2.18 µM; in assay [5] it was 27.5 µM; in assay [6] it was 8.65 µM. Moreover, the GI50 in assay [7] was found to be 11.6 µM; in [8], 35.6 µM; in assay [9] it was 16.6 µM; in assay [10], 14.1 µM; in assay [11], 17.5 µM; in assay [12] it was 6.75 µM.
